System in the first test: not listed separately
The experiment in a line: Selectivity index, ratio of IC50 for human SVGp12 cells to IC50 for human LN18 cells.
Settings: not given
In kind it is functional.
For the compound `OC[C@@H](O)[C@@H](O)[C@H](O)[C@@H](O)CN(CCc1ccccc1)C[C@H](O)[C@@H](O)[C@H](O)[C@H](O)CO`, the “Ratio IC50” value stood at 0.731.

Consider `CCCCCCCCCCCCCCCCN(CC[C@H](O)[C@H](O)CO)CC[C@H](O)[C@H](O)CO`, for which the “Ratio IC50” value was determined as 0.872.

For `OC[C@@H](O)[C@@H](O)[C@H](O)CN(CCc1ccccc1)C[C@@H](O)[C@H](O)[C@H](O)CO`, the “Ratio IC50” value was 0.864.

Turning to `C[S+](C)[O-]` [DIMETHYL SULFOXIDE], the “Ratio IC50” value was determined as 1.03.

System in a further test: not listed separately
The experiment in a line: Antiproliferative activity against human SVGp12 cells after 48 hrs by MTT assay. In kind it is cell-based. Particulars: SVGp12, 48 h.
Broadly, the IC50 is the concentration that inhibits the measured activity by half. Read a low IC50 as greater potency. Compound `OC[C@@H](O)[C@@H](O)[C@H](O)[C@@H](O)CN(CCc1ccccc1)C[C@H](O)[C@@H](O)[C@H](O)[C@H](O)CO` yielded a half-inhibitory concentration (IC50) of 212 µM.

As to `CCCCCCCCCCCCCCCCN(CC[C@H](O)[C@H](O)CO)CC[C@H](O)[C@H](O)CO`, the IC50 is 26.6 µM. Compared with the last compound, the IC50 is about 8-fold lower.

Consider `OC[C@@H](O)[C@@H](O)[C@H](O)CN(CCc1ccccc1)C[C@@H](O)[C@H](O)[C@H](O)CO`, for which half-maximal inhibition (IC50) was put at 222 µM.

Turning to `C[S+](C)[O-]` [DIMETHYL SULFOXIDE], half-maximal inhibition (IC50) required 229 µM.

In the case of `COc1cccc2c1C(=O)c1c(O)c3c(c(O)c1C2=O)C[C@@](O)(C(=O)CO)C[C@@H]3O[C@H]1C[C@H](N)[C@H](O)[C@H](C)O1` [DOXORUBICIN], the IC50 worked out at 4.21 µM. This IC50 is about 54-fold lower than that of the compound before.

System in a further test: not listed separately
The experiment in a line: Antiproliferative activity against human THP1 cells after 48 hrs by MTT assay. In kind it is functional, cell-based. The settings on record: THP-1, 48 h. (In general: Tetrazolium assays rely on reduction of a dye to a coloured formazan, in cell work by metabolically active cells.)
In the case of `C[S+](C)[O-]` [DIMETHYL SULFOXIDE], the IC50 was 119 µM.

The compound `COc1cccc2c1C(=O)c1c(O)c3c(c(O)c1C2=O)C[C@@](O)(C(=O)CO)C[C@@H]3O[C@H]1C[C@H](N)[C@H](O)[C@H](C)O1` [DOXORUBICIN] displayed an IC50 of 7.19 µM.

System in a further test: not listed separately
The experiment in a line: cells. The settings on record: Homo sapiens, HL-60, 48 h.
Description: Antiproliferative activity against human HL60 cells after 48 hrs by MTT assay
`OC[C@@H](O)[C@@H](O)[C@H](O)[C@@H](O)CN(CCc1ccccc1)C[C@H](O)[C@@H](O)[C@H](O)[C@H](O)CO` returned a 50% inhibitory concentration (IC50) of 91.3 µM.

For `OC[C@@H](O)[C@@H](O)[C@@H](O)CN(CCc1ccccc1)C[C@H](O)[C@H](O)[C@H](O)CO`, the IC50 turned out to be 89.4 µM.

`OC[C@@H](O)[C@H](O)[C@@H](O)CN(CCc1ccccc1)C[C@H](O)[C@@H](O)[C@H](O)CO`: inhibition was half-maximal at 136 µM (IC50).

`CCCCCCCCCCCCCCCCN(CC[C@H](O)[C@H](O)CO)CC[C@H](O)[C@H](O)CO` had an IC50 of 6.44 µM.

As for `OC[C@@H](O)[C@@H](O)[C@H](O)CN(CCc1ccccc1)C[C@@H](O)[C@H](O)[C@H](O)CO`, it took 121 µM to reach half-maximal inhibition (IC50).

Turning to `CCCCCCCCCCCCCCCCN(CC[C@@H](O)[C@H](O)[C@H](O)CO)CC[C@@H](O)[C@H](O)[C@H](O)CO`, the IC50 is 6.66 µM.

On to `C[S+](C)[O-]` [DIMETHYL SULFOXIDE], for which the half-maximal inhibitory concentration (IC50) is 108 µM.

Regarding `COc1cccc2c1C(=O)c1c(O)c3c(c(O)c1C2=O)C[C@@](O)(C(=O)CO)C[C@@H]3O[C@H]1C[C@H](N)[C@H](O)[C@H](C)O1` [DOXORUBICIN], it took 5.5 µM to reach half-maximal inhibition (IC50).

System in the next test: not listed separately
The experiment in a line: Antiproliferative activity against human LN18 cells after 48 hrs by MTT assay. In kind it is functional, cell-based. Particulars: LN-18, 48 h.
Turning to `OC[C@@H](O)[C@@H](O)[C@H](O)[C@@H](O)CN(CCc1ccccc1)C[C@H](O)[C@@H](O)[C@H](O)[C@H](O)CO`, the IC50 was determined as 290 µM.

Regarding `OC[C@@H](O)[C@@H](O)[C@@H](O)CN(CCc1ccccc1)C[C@H](O)[C@H](O)[C@H](O)CO`, the half-maximal inhibitory concentration (IC50) is 205 µM. This IC50 and that of the compound before are within 1.5-fold of each other.

In turn, `OC[C@@H](O)[C@H](O)[C@@H](O)CN(CCc1ccccc1)C[C@H](O)[C@@H](O)[C@H](O)CO` showed a 50% inhibitory concentration (IC50) of 255 µM.

In turn, `CCCCCCCCCCCCCCCCN(CC[C@H](O)[C@H](O)CO)CC[C@H](O)[C@H](O)CO` displayed a 50% inhibitory concentration (IC50) of 30.5 µM.

For the compound `OC[C@@H](O)[C@@H](O)[C@H](O)CN(CCc1ccccc1)C[C@@H](O)[C@H](O)[C@H](O)CO`, it took 257 µM to reach half-maximal inhibition (IC50).

Regarding `CCCCCCCCCCCCCCCCN(CC[C@@H](O)[C@H](O)[C@H](O)CO)CC[C@@H](O)[C@H](O)[C@H](O)CO`, the IC50 is 50.6 µM.

As to `C[S+](C)[O-]` [DIMETHYL SULFOXIDE], half-maximal inhibition (IC50) required 223 µM. Against the preceding compound, the IC50 is about 4.4-fold higher.

`COc1cccc2c1C(=O)c1c(O)c3c(c(O)c1C2=O)C[C@@](O)(C(=O)CO)C[C@@H]3O[C@H]1C[C@H](N)[C@H](O)[C@H](C)O1` [DOXORUBICIN] displayed an IC50 of 68.9 µM.

A further test concerns HEK293. The experiment in a line: Antiproliferative activity against HEK293 cells after 48 hrs by MTT assay. The class given is cell-based. Particulars: Homo sapiens, HEK293, 48 h.
Consider `OC[C@@H](O)[C@H](O)[C@@H](O)CN(CCc1ccccc1)C[C@H](O)[C@@H](O)[C@H](O)CO`, for which the IC50 is 215 µM.

On to `CCCCCCCCCCCCCCCCN(CC[C@H](O)[C@H](O)CO)CC[C@H](O)[C@H](O)CO`, for which half-maximal inhibition (IC50) required 31.1 µM. This IC50 is about 6.9-fold lower than that of the compound before.

`OC[C@@H](O)[C@@H](O)[C@H](O)CN(CCc1ccccc1)C[C@@H](O)[C@H](O)[C@H](O)CO` had an IC50 of 230 µM.

For `C[S+](C)[O-]` [DIMETHYL SULFOXIDE], the concentration for half-maximal inhibition (IC50) amounted to 232 µM.

Turning to `COc1cccc2c1C(=O)c1c(O)c3c(c(O)c1C2=O)C[C@@](O)(C(=O)CO)C[C@@H]3O[C@H]1C[C@H](N)[C@H](O)[C@H](C)O1` [DOXORUBICIN], it took 44.4 µM to reach half-maximal inhibition (IC50).

In the next test the test system is HEK293. The experiment in a line: Selectivity index, ratio of IC50 for HEK293 cells to IC50 for human HL60 cells. The class given is functional.
Settings: not given
Take `OC[C@@H](O)[C@H](O)[C@@H](O)CN(CCc1ccccc1)C[C@H](O)[C@@H](O)[C@H](O)CO`: the “Ratio IC50” value stood at 1.58.

On to `CCCCCCCCCCCCCCCCN(CC[C@H](O)[C@H](O)CO)CC[C@H](O)[C@H](O)CO`, for which the “Ratio IC50” value stood at 4.83.

For the compound `OC[C@@H](O)[C@@H](O)[C@H](O)CN(CCc1ccccc1)C[C@@H](O)[C@H](O)[C@H](O)CO`, the “Ratio IC50” value was 1.9.

For `C[S+](C)[O-]` [DIMETHYL SULFOXIDE], the “Ratio IC50” value was 2.15.
